The subject of experiment [1] is C57Bl/6 mice. Kind of experiment: AGISHA model with AngII as injury inducer (ACR in urine). It is filed as in vivo. From the text: Five groups with 10-12 mice per group (C57Bl/6, Charles River Laboratories, 6-7 weeks old) were set for one experiment. After delivery, animals remained in a temperature- and light-controlled room with standardized mouse chow and water ad libitum for a one week acclimatization period, following guidelines of local governmental institutions (LANUV Germany). The groups were divided as follows (see FIG. 1): • 1. Control group without AngII bolus injection, but with control saline and additional (oral) administration of drug vehicle (10% ethanol, 40% solutol, 50% water or saline). • 2. AngII group, treated with AngII in normal saline, and drug vehicle. AngII administration occurred in two bolus injections (i.v.+s.c.) of 10 μg (5 μg i.v.+5 μg s.c.), 16 μg (8 μg i.v.+8 μg s.c.) and 20 μg (10 μg i.v.+10 μg s.c.) per mouse, where the first bolus was injected intravenously and the second bolus subcutaneously. The drug vehicle was administered orally.
3. Candidate groups 3 and 4: AngII injection and additional treatment with the investigated drug/drugs. For substance testing, drugs or appropriated vehicles were administered orally, via i.v., s.c., or i.p. Administration occurred prior to or after AngII-injection. For example, investigated drug/drugs were given orally 30 minutes before the induction of the injury. • 4. Group 5 is the positive control group Animals were injected with AngII and treated orally with Losartan 30 mg/kg. Losartan is an AngII receptor blocker AT1 (Pieter B M et al, Pharma. Rev., 1993, Kang P M et al, Progress in Cardiology, 1994).
After AngII injection animals were placed in metabolic cages (Technoplast, Italy) for urine collection for up to 4 hours. At the end of the experiment the urine was analyzed to quantify the ACR. More specifically, the collected urine was analyzed using an automatic analyzer for urinary albumin as well as urinary creatinine (Coban® Integra 400, Roche, Basel, SUI) or using the Mouse albumin ELISA kit (ABCAM, Cambridge, UK). […] The AGISHA model was performed in 3 identical cycles with a one-week break for recovery.
Negative and positive control experiment. To confirm the findings shown in FIG. 2-4, the mode of action in AGISHA was investigated. In the following experiment, three of the animal groups were pre-treated with three different drugs by oral application 30 minutes before administration of injury inducer (see FIG. 5). • 1) Enalapril 10 mg/kg, an angiotensin-converting enzyme (ACE) inhibitor, is standard of care for high blood pressure. It was used as positive modulator control 1 of the renin-angiotensin system (RAS) in the AGISHA model. • 2) Losartan potassium, 30 mg/kg, angiotensin II type I receptor (AT1) antagonist, standard of care for high blood pressure (Kang et al, 1994; Sica D A et al, Clin Parmacokinet., 2005) was used as positive modulator control 2 of the RAS system in the AGISHA model. • 3) Tivozanib, 3 mg/kg, vascular endothelial grow factor receptor tyrosine kinase inhibitor (Campas C et al, Drugs Fut., 2009) was used as negative modulator of the RAS system during AGISHA model. […]
The experiment was performed as described in example 5, except that the sGC stimulator 5-cyclopropyl-2-[1-(2-fluorobenzyl)-1H-pyrazolo[3,4-b]pyridin-3-yl]pyrimidin-4-amine was used for treatment. […] Losartan (30 mg/kg) was used as positive control.

In experiment [2] the test system is rat model of hypertension. The conditions noted are these: Hoffmann L S et al. 2015; cited from earlier work.
For experiment [3], the system named is C57Bl/6 mice. Description: AGISHA model with Vasopressin (AVP) as injury inducer (ACR in urine). The following applies: AVP 10 μg i.v.+10 μg s.c.; vs NaCl. Type of experiment: in vivo.
The test system of another experiment is mice. Description: GFR-based model with AVP and Sinestrin-FITC. It is filed as in vivo. The following applies: AVP 35 μg (15 μg i.v. + 20 μg second bolus); vs control group. The method, then: A similar setup (FIG. 23) was used with AVP (Sigma-Aldrich, Mo.) at a dose of 35 μg, i.e. using a first bolus with 15 μg AVP, injected i.v. in combination with Sinestrin-FITC 150 mg/kg (50 ul+50 ul) and using a second bolus of 20 μg AVP, 100 uL, injected i.v. As before GFR, was decreased by AVP compared with the control group.

The subject of experiment [4] is Male BL6/J mice. Description: GFBI test model with Sema3a as injury inducer (half-life of Ficoll-FITC). Type of experiment: in vivo. The following applies: Sema3a 0.5 μg/g bodyweight i.v., vs BSA control. The method, then:
(§1) AngII induced GBM damage is a fast and stable trigger method to mimic human hypertensive glomerular disease or its complications. However, a non-hypertensive trigger was required to study the non-hypertensive kidney pathologies. […] For the example at hand, other than described by Tapia R et al, Sema3a was injected i.v. and ACR and GFB integrity were evaluated in the following setup with the following experimental groups. • 1) Male BL6/J mice were injected via tail vein with a mix of Ficoll-FITC 150 mg/kg and BSA (0.5 μg/g of BW), in a maximal volume of 100 μl. • 2) Male BL6/J mice were injected via tail vein with a mix of Ficoll-FITC 150 mg/kg and Sema3a (R&D System, USA), 0.5 μg/g of BW, in a maximal volume of 100 μl.
(§2) The animals went under transcutaneous fluorescent measurement for 2 h, as described before. The GFB integrity test was able to detect the loss of fluorescent dye due to podocyte effacement as well as the increased ACR in the urine. […] This peptide is able to disrupt the ability of the Sema3A to induce the decay of the fluorescent dye. The sensitivity of the GFBI test was evaluated as follows and subjects were pre-treated according to the following groups: • 1. […]

The test system of experiment [5] is Male BL6/J mice. Description: ACR after Sema3a bolus injection. It is filed as in vivo. The conditions noted are these: Sema3a 0.5 μg/g bodyweight i.v.; vs BSA control. The method, then:
as §1, §2

The conditions of experiment [6]: Tapia R et al, KI, 2008; cited from earlier work.

Entries after “also recorded” stand apart in the source; their conditions may differ.

With `Nc1nc(-c2nn(Cc3ccccc3F)c3ncccc23)ncc1C1CC1` [5-cyclopropyl-2-[1-(2-fluorobenzyl)-1H-pyrazolo[3,4-b]pyridin-3-yl]pyrimidin-4-amine], the “Reduction of ACR” value was 54% in the experiment on C57Bl/6 mice [1] (1 mg/kg orally prior to AngII) and 62% with C57Bl/6 mice [1] (3 mg/kg orally prior to AngII (sGC stimulator experiment)). The “AngII induced ACR, mean±SD” value turned out to be 50 ± 49 µg/mg in the experiment with C57Bl/6 mice [1] (1 mg/kg orally prior to AngII 10 μg i.v.+10 μg s.c.) and 42 ± 35 µg/mg with C57Bl/6 mice [1] (3 mg/kg orally prior to AngII 10 μg i.v.+10 μg s.c. (sGC stimulator experiment)). Also, in experiment [2], the “Effect on angiotensin II-induced cardiovascular remodeling” value was “ameliorates angiotensin II-induced cardiovascular remodeling”.

For the molecule `NC(=O)CC[C@@H]1NC(=O)[C@H](Cc2ccccc2)NC(=O)[C@H](Cc2ccc(O)cc2)NC(=O)[C@@H](N)CSSC[C@@H](C(=O)N2CCC[C@H]2C(=O)N[C@@H](CCCN=C(N)N)C(=O)NCC(N)=O)NC(=O)[C@H](CC(N)=O)NC1=O` [AVP], the “ACR in urine collected for 4 hours after AVP bolus injection” value in the experiment on C57Bl/6 mice [3] is “significant increase of ACR”. Besides, the “GFR 2 hrs after AVP bolus injection” value in the experiment with mice is on record as “decreased; also recorded: significant decrease in GFR”.

B1: Sema3a: recombinant mouse Semaphorin-3A protein (R&D System), non-hypertensive injury inducer (protein, UniProt O08665 21-772, looked up)
Semaphorin-3A: NYANGKNNVPRLKLSYKEMLESNNVITFNGLANSSSYHTFLLDEERSRLYVGAKDHIFSFNLVNIKDFQKIVWPVSYTRRDECKWAGKDILKECANFIKVLEAYNQTHLYACGTGAFHPICTYIEVGHHPEDNIFKLQDSHFENGRGKSPYDPKLLTASLLIDGELYSGTAADFMGRDFAIFRTLGHHHPIRTEQHDSRWLNDPRFISAHLIPESDNPEDDKVYFFFRENAIDGEHSGKATHARIGQICKNDFGGHRSLVNKWTTFLKARLICSVPGPNGIDTHFDELQDVFLMNSKDPKNPIVYGVFTTSSNIFKGSAVCMYSMSDVRRVFLGPYAHRDGPNYQWVPYQGRVPYPRPGTCPSKTFGGFDSTKDLPDDVITFARSHPAMYNPVFPINNRPIMIKTDVNYQFTQIVVDRVDAEDGQYDVMFIGTDVGTVLKVVSVPKETWHDLEEILLEEMTVFREPTTISAMELSTKQQQLYIGSTAGVAQLPLHRCDIYGKACAECCLARDPYCAWDGSSCSRYFPTAKRRTRRQDIRNGDPLTHCSDLQHHDNHHGPSLEERIIYGVENSSTFLECSPKSQRALVYWQFQRRNEDRKEEIRMGDHIIRTEQGLLLRSLQKKDSGNYLCHAVEHGFMQTLLKVTLEVIDTEHLEELLHKDDDGDGSKIKEMSSSMTPSQKVWYRDFMQLINHPNLNTMDEFCEQVWKRDRKQRRQRPGHSQGSSNKWKHMQESKKGRNRRTHEFERAPRSV
As to B1, the “Half-life of fluorescent molecule Ficoll-FITC 2 hrs after Sema3a bolus injection” value is reported as “significantly decreased half-life” with Male BL6/J mice [4] and “significant decrease in half-life” in the experiment with Male BL6/J mice [4] (listed as Sema3A). Also, the “ACR after Sema3a bolus injection” value in the experiment on Male BL6/J mice [5] is listed as “significantly increased ACR”. Further, the “ACR after injection of recombinant Sema3a” value in experiment [6] is listed as “robust, transient ACR within 4-24 h”.

The values above are taken from patent publication US11439713B2, “Method for creating a renal injury model to screen molecules for the treatment of renal injury” (BAYER AKTIENGESELLSCHAFT, priority 2017, dated 2022).
